The values below come from patent publication US6204282A, “Benzimidazole compounds that are vitronectin receptor antagonists” (Schering Corporation, priority 1999, dated 2001).

Chain of αllbβ3 receptor (P08514 32-1039): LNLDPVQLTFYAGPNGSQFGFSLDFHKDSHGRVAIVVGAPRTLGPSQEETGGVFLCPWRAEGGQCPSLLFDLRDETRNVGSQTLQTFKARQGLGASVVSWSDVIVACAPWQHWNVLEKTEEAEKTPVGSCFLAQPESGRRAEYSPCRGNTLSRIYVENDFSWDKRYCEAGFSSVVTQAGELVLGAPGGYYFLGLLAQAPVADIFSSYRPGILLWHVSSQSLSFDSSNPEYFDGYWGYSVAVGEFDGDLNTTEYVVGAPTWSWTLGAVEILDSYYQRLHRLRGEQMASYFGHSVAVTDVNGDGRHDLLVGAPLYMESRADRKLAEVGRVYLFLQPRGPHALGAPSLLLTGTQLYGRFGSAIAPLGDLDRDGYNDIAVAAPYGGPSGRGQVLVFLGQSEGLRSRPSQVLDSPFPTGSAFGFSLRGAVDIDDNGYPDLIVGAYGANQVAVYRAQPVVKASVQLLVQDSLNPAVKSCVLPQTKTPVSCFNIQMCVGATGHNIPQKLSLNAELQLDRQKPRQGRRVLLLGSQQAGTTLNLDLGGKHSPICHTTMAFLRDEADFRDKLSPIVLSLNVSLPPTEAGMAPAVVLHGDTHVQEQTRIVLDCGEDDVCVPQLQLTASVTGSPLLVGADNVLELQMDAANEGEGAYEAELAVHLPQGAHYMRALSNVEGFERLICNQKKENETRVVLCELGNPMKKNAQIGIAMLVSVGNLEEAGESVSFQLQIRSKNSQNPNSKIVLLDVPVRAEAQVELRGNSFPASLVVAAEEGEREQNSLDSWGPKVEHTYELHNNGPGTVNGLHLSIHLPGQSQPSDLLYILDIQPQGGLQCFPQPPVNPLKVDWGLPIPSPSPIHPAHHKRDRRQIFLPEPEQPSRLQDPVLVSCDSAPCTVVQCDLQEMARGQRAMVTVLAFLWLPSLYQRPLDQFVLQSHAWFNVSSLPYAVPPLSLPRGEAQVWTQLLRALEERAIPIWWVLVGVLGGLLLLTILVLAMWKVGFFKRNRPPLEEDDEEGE
Chain of αllbβ3 receptor (P05106 27-788): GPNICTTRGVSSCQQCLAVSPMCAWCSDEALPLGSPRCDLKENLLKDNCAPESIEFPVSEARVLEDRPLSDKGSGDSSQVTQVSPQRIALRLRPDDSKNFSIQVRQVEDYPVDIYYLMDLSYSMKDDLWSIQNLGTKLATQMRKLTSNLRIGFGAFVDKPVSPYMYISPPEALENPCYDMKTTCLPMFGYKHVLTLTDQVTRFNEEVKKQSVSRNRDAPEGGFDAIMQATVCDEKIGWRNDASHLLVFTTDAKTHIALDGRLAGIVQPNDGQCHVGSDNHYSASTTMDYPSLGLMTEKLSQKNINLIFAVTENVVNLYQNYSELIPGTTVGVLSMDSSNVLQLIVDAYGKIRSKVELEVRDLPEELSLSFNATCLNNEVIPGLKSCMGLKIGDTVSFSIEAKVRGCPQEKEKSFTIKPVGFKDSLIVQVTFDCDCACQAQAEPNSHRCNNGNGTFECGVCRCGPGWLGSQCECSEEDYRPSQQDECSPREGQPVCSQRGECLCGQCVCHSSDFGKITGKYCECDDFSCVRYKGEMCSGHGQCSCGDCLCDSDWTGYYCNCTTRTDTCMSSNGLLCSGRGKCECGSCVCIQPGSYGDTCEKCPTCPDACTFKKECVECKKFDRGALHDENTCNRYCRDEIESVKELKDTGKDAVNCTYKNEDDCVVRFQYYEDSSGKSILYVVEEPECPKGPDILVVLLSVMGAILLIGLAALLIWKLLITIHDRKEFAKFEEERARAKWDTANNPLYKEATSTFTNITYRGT

This test concerns the target αllbβ3 receptor (Homo sapiens, UniProt P05106+P08514). Briefly: similar competitive assay with purified αllbβ3 receptor and 125I-echistatin (specificity index versus αvβ3). The test is classed as binding. As to conditions: IC50 αllbβ3 / IC50 αvβ3. The source says: The specificity index, which is a measure of the relative binding affinity for αvβ3 versus αllbβ3, may be determined by dividing the IC50 value for αllbβ3by the IC50 value for αvβ3.
As to `CN(Cc1ccc(C(=O)NC[C@H](NC(=O)OCc2ccccc2)C(=O)O)cc1)Cc1nc2ccccc2[nH]1` [Example 5-33], the “SPECIFICITY αIIb β3/αvβ3 (specificity index)” value came to 128.
Under `O=C(N[C@@H](CNC(=O)c1ccc(CN(Cc2nc3ccccc3[nH]2)C(=O)N2CCOCC2)cc1)C(=O)O)OCc1ccccc1` [Example 5-42] stands 39.
Under `CC(=O)N(Cc1ccc(C(=O)NC(CC(=O)O)c2ccccc2)cc1)Cc1nc2ccccc2[nH]1` (centres unmarked) [Example 5-66] stands 0.4; under `O=C(NC(CNC(=O)c1ccc(CN(CCc2nc3ccccc3[nH]2)C(=O)CCc2ccccc2)cc1)C(=O)O)OCc1ccccc1` (centres unmarked) [Example 5-73], 0.7.
The result for `O=C(N[C@@H](CNC(=O)c1ccc(CN(Cc2nc3ccccc3[nH]2)C(=O)NC23CC4CC(CC(C4)C2)C3)cc1)C(=O)O)OCc1ccccc1` [Example 5-40] reads 288; that for `O=C(N[C@@H](CNC(=O)c1ccc(CN(Cc2nc3ccccc3[nH]2)C(=O)Nc2cccc3ccccc23)cc1)C(=O)O)OCc1ccccc1` [Example 5-37], 203.
Take `O=C(N[C@@H](CNC(=O)c1ccc(CN(Cc2nc3ccccc3[nH]2)C(=O)COc2ccccc2)cc1)C(=O)O)OCc1ccccc1` [Example 5-19]: the “SPECIFICITY αIIb β3/αvβ3 (specificity index)” value is given as 34.
Under `CC(=O)N(Cc1ccc(C(=O)NC[C@H](NC(=O)OCc2ccccc2)C(=O)O)cc1)C(C)c1nc2ccccc2[nH]1` (some centres unmarked) [Example 5-76] stands 6.7; under `COc1ccc(NC(=S)N(Cc2ccc(C(=O)NC[C@H](NC(=O)OCc3ccccc3)C(=O)O)cc2)Cc2nc3ccccc3[nH]2)cc1` [Example 5-46], 1065.
Under `CCCCOC(=O)N[C@@H](CNC(=O)c1ccc(CN(Cc2nc3ccccc3[nH]2)C(=O)NC(C)C)cc1)C(=O)O` [Example 5-84] stands 712.
Turning to `COc1ccc(OC(=O)N(Cc2ccc(C(=O)NC[C@H](NC(=O)OCc3ccccc3)C(=O)O)cc2)Cc2nc3ccccc3[nH]2)cc1` [Example 5-21], the “SPECIFICITY αIIb β3/αvβ3 (specificity index)” value was 41.
For the molecule `O=C(N[C@@H](CNC(=O)c1ccc(CN(Cc2nc3ccccc3[nH]2)C(=O)Nc2ccccc2)cc1)C(=O)O)OCc1ccccc1` [Example 5-27], the “SPECIFICITY αIIb β3/αvβ3 (specificity index)” value was 481.
On to `O=C(N[C@@H](CNC(=O)c1ccc(CN(Cc2nc3ccccc3[nH]2)C(=O)Nc2ccc(-c3ccccc3)cc2)cc1)C(=O)O)OCc1ccccc1` [Example 5-38], for which the “SPECIFICITY αIIb β3/αvβ3 (specificity index)” value worked out at 49.
Under `CCOC(=O)[C@H](Cc1ccccc1)NC(=O)N(Cc1ccc(C(=O)NC[C@H](NC(=O)OCc2ccccc2)C(=O)O)cc1)Cc1nc2ccccc2[nH]1` [Example 5-52] stands 448; under `CC(C)C(=O)N(Cc1ccc(C(=O)NC[C@H](NC(=O)OCc2ccccc2)C(=O)O)cc1)Cc1nc2ccccc2[nH]1` [Example 5-13], 38.
As for `CN(C)CC(=O)N(Cc1ccc(C(=O)NC[C@H](NC(=O)OCc2ccccc2)C(=O)O)cc1)Cc1nc2ccccc2[nH]1` [Example 5-24], the “SPECIFICITY αIIb β3/αvβ3 (specificity index)” value is on record as 14.
The result for `O=C(O)CC(NC(=O)c1ccc(CN(Cc2nc3ccccc3[nH]2)C(=O)CCc2ccccc2)cc1)c1ccccc1` (centres unmarked) [Example 5-68] reads 0.4; that for `COCCNC(=S)N(Cc1ccc(C(=O)NC[C@H](NC(=O)OCc2ccccc2)C(=O)O)cc1)Cc1nc2ccccc2[nH]1` [Example 5-56], 514.
Under `CCCCOC(=O)N[C@@H](CNC(=O)c1ccc(CN(Cc2nc3ccccc3[nH]2)C(=O)Nc2ccc(C(=O)OCC)cc2)cc1)C(=O)O` [Example 5-91] stands 1183; under `CCOC(=O)CCC(=O)N(Cc1ccc(C(=O)NC[C@H](NC(=O)OCc2ccccc2)C(=O)O)cc1)Cc1nc2ccccc2[nH]1` [Example 5-17], 76.
